Legend:
[1] = system: NSCLC U-1810 cells; assay: MTT cytotoxicity assay in NSCLC U-1810 cells; format: cell-based, human; conditions: for Selectivity NSCLC cells (U-1810) vs. diploid fibroblasts (WI-38): calculated at IC50 (WI-38 IC50 / U-1810 IC50)
Protocol: Cytotoxicity structure-activity relationship analyses of compounds in NSCLC tumor cells and fibroblasts. Stock solutions (10 mg/mL) of the compounds to be tested were made in DMSO and further diluted with cell culture media prior to structure-activity relationship (SAR) screening as earlier described. To assess anti-tumor activity, the large cell lung carcinoma cell line NSCLC U-1810 (kind gift from Uppsala University) and diploid lung fibroblasts WI-38 [30] were used. U-1810 cells were propagated in RPMI-1640 medium (Sigma-Aldrich, St. Louis, […], USA) supplemented with FBS (10% HyClone) and L-glutamine (2 mmol/L, Invitrogen) while WI-38 fibroblasts were cultured in Eagle’s Minimum Essential Medium (Sigma-Aldrich) with 15% FBS and L-glutamine. For SAR assessment the cytotoxic assay 3-(4,5-dimethylthiazol-2-yl)-2,5 diphenyltetrazolium bromide (MTT) was applied. Profiling of U-1810 cells was carried out at 80% confluency (obtained by seeding 5000 cells/well in a 96-well plate for 24 h prior to treatment) and of WI-38 at 100% confluency (obtained by seeding 18,000 cells/well in a 96-well plate for 24 h prior to compound addition), the later to mimic the behavior of fibroblasts in the human body where they are non-dividing. For SAR evaluation, different concentrations of the compounds were added to fresh media while untreated cells were treated with DMSO corresponding to the amount applied when testing the highest concentration of the different compounds. The cytotoxicity of the compounds was assessed at 72 h post addition to cells by adding MTT solution (0.5 mg/mL, Sigma-Aldrich, 4 h at 37 °C) and dissolving the resulting formazan crystals in an SDS-containing solution (10% SDS and 0.01 mol/L HCl). Absorbance was quantified at 595 nm and the compound-induced cytotoxicity was calculated relative to that observed in DMSO-treated cells. The IC50 values were deduced from survival plots drawn in Graph Pad PRISM software vers.6 and for some of the compounds extrapolated as indicated in footnotes to Table 1.

[2] = system: WI-38 diploid lung fibroblasts; parameters: method as in PMID 25319389; conditions: 72 h; cited from earlier work
[3] = system: NSCLC U-1810 cells; parameters: method as in PMID 25319389; conditions: 72 h; cited from earlier work

Structure (SMILES)	cytotoxic activity in NSCLC U-1810 cells (in words) [1]	Selectivity NSCLC cells (U-1810) vs. diploid fibroblasts (WI-38) [1]	IC50 [2]	IC50 [3]
C#C[C@H](O)/C=C/CCCCCCCCC(C)CCCCCCCC (stereo partly drawn) [Compound 23, (3R)-14-Methyldocos-(4E)-en-1-yn-3-ol]	equally active	12.1	9.7 µM	0.8 µM
C#C[C@H](O)/C=C/CCCCCCCCCCCCCCC [scal-18, (3R)-Icos-(4E)-en-1-yn-3-ol]	equally active	14.6	7.3 µM	0.5 µM

Reference: paper PMC9032987, “Cytotoxic Alkylynols of the Sponge Cribrochalina vasculum: Structure, Synthetic Analogs and SAR Studies” (Marine Drugs, 2022)
